Data set [1] concerns Mut6 cells (TD-NSC). Put plainly: luminescence-based Celltiter-Glo cell viability assay (ATP levels) on Mut6 tumor derived neuronal stem cells. Set-up: species or system mouse. As to conditions: for EC50: Mus musculus. A digest of the protocol: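 Primary tumor-derived neural stem cells from pooled Mut6 (p53/Pten/Nf1 conditional knockout) GBM tumors, serum-free with defined growth factors. Compound exposure 96 h at 37° C., 5% oxygen; viability by CellTiter-Glo ATP luminescence with cell-free background wells, giving IC50 curves.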

Data set [2] relates to Mut6 cells. Kind of data set: cholesterol and triglyceride level (pg/cell) in treated cells. It is filed as cell-based, mouse. How it is done: (§1) FIG. 12A is a bar graph showing cholesterol (pg/cell), and triglyceride (pg/cell) levels in Mut6 cells treated with compound 4C12 for 24 hours and 48 hours, versus a negative control (vehicle only). […] Mut6 cells were treated with compound 4C12 for 24 hours and then mRNA levels for Hydroxymethylglutaryl-CoA synthase(Hmgcs); 3-hydroxy-3-methylglutaryl-coenzyme A reductase (Hmgcr); acetoacetyl-CoA synthetase (AACS); Delta(24)-sterol reductase (Dhcr24); 7-dehydrocholesterol reductase (Dhcr7), Sterol C5-desaturase (Sc5d); Squalene synthase (SS); and farnesyl pyrophosphate (FPP) synthase (FPPS) were determined.
FIG. 17 compares cholesterol level (pg/cell) (Left) and triglyceride level (pg/cell) (Right) in Mut6 cells and in MEF cells treated with compound 4C12 for 24 hours and 48 hours to a negative control (vehicle).

Data set [3] relates to cholesterol biosynthesis pathway (Srebp2 target genes). Put plainly: microarray and mRNA levels of cholesterol synthesis genes in Mut6 cells. It is filed as cell-based, mouse. How it is done:
Microarray analysis was conducted to identify overrepresented pathways associated with treatment with compound 4C12 for 48 hr.
as §1
(§2) In FIG. 13(a)-(e) Mut6 cells were treated with compound 4C12 for 2, 9, 16, 24, and 48 hr, respectively, and their cholesterol gene profile compared to a DMSO control. […] (f) Western blot. Mut6 cells were treated with vehicle only (−) or with compound 4C12 (+) for 7 hr, 13 hr and 23 hr. Cells were collected, lysed in SDS buffer, subjected to SDS PAGE, and cell proteins transferred to a membrane by a standard protocol.

The subject of data set [4] is Srebp2 target genes in Astrocytes. Put plainly: relative mRNA level of cholesterol biosynthesis pathway target genes in astrocytes. Conditions: vs dmso (FIG. 16). It is filed as cell-based, mouse. The text has this:
(§3) FIG. 16 is a bar graph of relative mRNA level for cholesterol biosynthesis pathway target genes Hmgcs, Hmgcr, FPPS, LDLR; and SREBP1c in mouse embryo fibroblasts (left) and astrocytes (right) treated with compound 4C12 or dmso (negative control).

Data set [5] relates to mouse embryonic fibroblasts (MEFs). Put plainly: ATP viability of mouse embryonic fibroblasts treated with increasing concentrations. As to conditions: increasing concentrations (FIG. 7A). The data set is classed as cell-based. How it is done: (§4) A luminescence-based Celltiter-Glo® assay was performed to measure cell viability, using ATP levels as the readout. In brief, opaque-walled multiwell plates with Mut6 cells in culture medium (25 μl per well, 384-well plates) were prepared. Control wells containing medium without cells were prepared to obtain a value for background luminescence. Test compounds were added to experimental wells, and incubated according to culture protocol. The plate and its contents were incubated at 37° C., 5% […] for 96 hours. An ATP standard curve was generated immediately prior to adding the CellTiter-Glo® Reagent. A volume of CellTiter-Glo® Reagent equal to the volume of cell culture medium present in each well (25 μl of reagent to 25 μl of medium containing cells for a 384-well plate) was added. The contents were mixed for 2 minutes on an orbital shaker to induce cell lysis. The plate was allowed to incubate at room temperature for 10 minutes to stabilize the luminescent signal and luminescence recorded. (e.g. GloMax®, Lumistar, SPECTROstar, PHERAstar FS).
(§5) Normal astrocytes, Mut6 cells and mouse embryonic fibroblasts were treated with increasing concentrations of compound 4C12. […] Normal astrocytes and MEFs were unaffected by compound 4C12.

Data set [6] has as its system Srebp2 target genes in MEFs. Kind of data set: relative mRNA level of cholesterol biosynthesis pathway target genes in MEFs. The data set is classed as cell-based, mouse. As to conditions: vs dmso (FIG. 16).
Description: as §3

The test system of data set [7] is Mut6 cells. Put plainly: cell-based wash-out time course with ATP assay at 96 hours (FIG. 8). Set-up: species or system mouse. As for the experimental part:
FIGS. 8A-B comprising FIG. 8A and FIG. 8B show the identification of molecular changes between 6 hr and 24 hr time points. […] Cells were plated 48 hours before treatment with test compounds Compound 1, Compound 2 and 4C12, and a negative control. Cultures then were treated with the test compound. The media was removed and cells washed twice. Fresh media was added without compound. Data points were 6 hr, 22 hr, 33 hr, 51 hr, 71 hr and continuous. Molecular changes were identified between the 6 hr and 24 hr time points. An ATP assay was performed at 96 hours. On day 2, Cells treated with 4C12 were round-shaped. […] On day 4, 10-20% of the cells were apoptotic. By day 5, 80-90% of the cells were apoptotic.

The test system of data set [8] is SREBP2. Kind of data set: Western blot of SREBP proteins in Mut6 cells. The data set is classed as cell-based, mouse. Conditions: 7 hr, 13 hr and 23 hr. How it is done:
as §2
Background: A western blot detects proteins with antibodies after separation by electrophoresis.

In data set [9] the test system is Normal astrocytes. Put plainly: ATP viability of normal astrocytes treated with increasing concentrations. Conditions: increasing concentrations (FIG. 7A). The data set is classed as cell-based, mouse. As for the experimental part:
as §4, §5

Data set [10] has as its system Srebp1 target genes. Put plainly: cholesterol gene profile in Mut6 cells, Srebp1 targets. The data set is classed as cell-based, mouse. Conditions: Mut6 cells, 2, 9, 16, 24 and 48 hr vs DMSO. How it is done: as §2
Data set [11] can be described thus: S9 Metabolism Assay (half-life by substrate depletion). As to conditions: female, ICR/CD-1, S9 fractions, pH 7.5; mouse S9, 2 μM compound; time plotted in min; read-out: S9 T1/2. It is filed as in vitro ADME. How it is done:
Female ICR/CD-1 mouse S9 fractions were purchased from Celsis/In Vitro Technologies (Baltimore, Md.). 25 μl (0.5 mg) of S9 protein was added to a 15 ml glass screw cap tube. 350 μl of a 50 mM Tris, pH 7.5 solution, containing the compound of interest was added on ice. The final concentration of compound after addition of all reagents was 2 μM. 125 μl of an NADPH-regenerating system (1.7 mg/ml NADP, 7.8 mg/ml glucose-6-phosphate, 6 U/ml glucose-6-phosphate dehydrogenase in 2% w/v NaHCO3/10 mm MgCl2) was added for analysis of Phase I metabolism. Uridine 5′-diphospho-α-D-glucuronic acid (UDPGA 1.9 mg/ml) and 3′-phosphoadenosine-5′-phosphosulphate (PAPS, 100 mg/ml) were additionally added for phase II reactions. The tube was then placed in a 37° C. shaking water bath. At varying time points after addition of phase I and phase II cofactors, the reaction was stopped by the addition of 0.5 ml of methanol containing 0.2% formic acid and 200 ng/ml internal standard (either n-benzylbenzamide or tolbutamide, Sigma, St. Louis, Mo.). The samples were incubated 10′ at RT and then spun at 16,100×g for 5 min in a microcentrifuge. The supernatant was analyzed by LC-MS/MS. Metabolism of 7-ethoxycoumarin was used to monitor […] performance. Analytical methods were developed for each compound using an Applied Biosystems (Foster City, Calif.) 4000-QTrap, a combination triple quadrupole/ion trap instrument. The parent ion and the two most prominent daughter ions were followed to confirm compound identity, although only the most abundant daughter was used for quantitation. A Shimadzu (Columbia, Md.) Prominence LC with Agilent C18 XDB column (5 micron packing; 50×4.6 mm) was used for chromatography.
The method described in McNaney, et al (McNaney, C A, D M Drexler, S Hnatyshyn, T A Zvyaga, J O Knipe, J V Belcastro, and M Sanders. 2008. An automated liquid chromatography-mass spectrometry process to determine metabolic stability half-life and intrinsic clearance of drug candidates by substrate depletion. Assay and Drug Development Technologies 6:121-129. Determination of Plasma and Brain Pharmacokinetics) was used with modification for determination of metabolic stability half-life by substrate depletion. A “% remaining” value was used to assess metabolic stability of a compound over time. The LC/MS/MS peak area of the incubated sample at each time point was divided by the LC/MS/MS peak area of the time 0 (TO) sample and multiplied by 100. The natural Log (LN) of the % remaining of compound was then plotted versus time (in min) and a linear regression curve plotted going through y-intercept at LN(100).

Setting [12] is: Mut6 cells, 24 hours and 48 hours.
The mark [13] stands for this setting: 96 h, ATP activity as measure of viability, 96 hours, read-out: EC50 (TD-NSC).

The results in this text go back to US11548894B2, “Benzamide or benzamine compounds useful as anticancer agents for the treatment of human cancers” (The Board of Regents of the University of Texas System, priority 2015, dated 2023).

SMILES strings stand for the structures. Where two headings read alike, the source gives them in different places. Where only a bound is given, the exact number is not on record here.

With `CCN1CCCC1CNC(=O)c1ccc(Sc2ccc(F)cc2)c([N+](=O)[O-])c1` (stereo not shown) [4C12, N-((1-ethylpyrrolidin-2-yl)methyl)-4-((4-fluorophenyl)thio)-3-nitrobenzamide], the EC50 in [1] (relative ATP activity versus concentration (FIG. 7A), read-out: ED50 against Mut6 cells) amounted to 50 nM. In addition, the “compound-induced cell-death with addition of cholesterol” value in [1] (Mut6 cells (FIG. 15(b))) was “inhibits”. Further, the “sensitivity after knock-down of Insig1/Insig2” value in [1] (Mut6 cells (FIG. 15(c))) is recorded as “less sensitive”. For the same compound, the “live cells (%)” value in [1] (Mut6 tumor cells viable after 96 hours (FIG. 7C)) was 50%. For the same compound, the “specificity of cholesterol decrease” value in data set [2] (Mut6 cells vs MEF cells, 24 and 48 hours (FIG. 17)) is reported as “specific to Mut6 tumor cells”. In addition, in [2] (setting [12]), the “cholesterol (pg/cell)” value was “decreases” and the “triglyceride (pg/cell)” value is given as “increases”. Besides, in data set [3] (Mut6 cells, 2, 9, 16, 24 and 48 hr vs DMSO), the “effect on Srebp2 target genes” value is “inhibits Srebp2 target genes”. Moreover, in [3] (Mut6 cells, 24 hours), the “relative mRNA of genes for cholesterol synthesis enzymes” value is given as “down-regulated”. Moreover, the “overrepresented pathways by microarray” value in data set [3] (treatment for 48 hr) was “deregulates the cholesterol biosynthesis pathway”. In addition, the “Srebp2 target genes mRNA in Astrocytes” value in data set [4] is reported as “not decreased”. Further, the “effect on viability of MEFs” value in data set [5] is “unaffected”. For the same compound, the “Srebp2 target genes mRNA in MEFs” value in [6] is on record as “not decreased”. Besides, the cell shape entry in data set [7] (day 2) is listed as “round-shaped”. Also, the cell cycle state entry in data set [7] (day 3) is listed as “arrested in G2”. Also, in data set [7] (day 4), the apoptotic cells is 10-20%. For the same compound, in data set [7] (day 5), the apoptotic cells is recorded as 80-90%. For the same compound, in data set [7] (relative to the control (FIG. 8B)), the “relative ATP activity versus time” value is reported as “reduced ATP activity as a function of time”. Also, the “SREBP2 protein (Western blot)” value in data set [8] was “effective to decrease SREBP2 protein”. Besides, the “effect on viability of normal astrocytes” value in data set [9] was “unaffected”. The “effect on Srebp1 target genes” value in [10] was “not Srebp1 target genes”.
For the compound `CC1C2CCCN2CCN1C(=O)c1ccc(Sc2ccc(F)cc2)c([N+](=O)[O-])c1` (stereo not shown) [DS-1-279, (4-((4-fluorophenyl)thio)-3-nitrophenyl)(1-methylhexahydropyrrolo[1,2-a]pyrazin-2(1H)-yl)methanone], the EC50 in data set [1] (setting [13]) came out at 58 nM. The half-life at 2 μM in data set [11] stood at 0.445 h.
On the same counts, the results for `O=C(NCCCN1CCOCC1)c1ccc(Sc2ccc(F)cc2)c([N+](=O)[O-])c1` [DS-1-283, 4-((4-fluorophenyl)thio)-N-(3-morpholinopropyl)-3-nitrobenzamide] are 42 nM and 1.56 h.
With `CCN1CCCC1CNC(=O)c1ccc(Sc2ccc(F)cc2)c(S(C)(=O)=O)c1` (stereo not shown) [DS-1-301, N-((1-ethylpyrrolidin-2-yl)methyl)-4-((4-fluorophenyl)thio)-3-(methylsulfonyl)benzamide], the EC50 in data set [1] (setting [13]) was 236 nM. Also, the half-life at 2 μM in [11] is above 4 h.
On the same counts, the results for `N#Cc1cc(C(=O)NCCN2CCOCC2)ccc1Oc1ccc(F)cc1` [DS-2-045, 3-cyano-4-(4-fluorophenoxy)-N-(2-morpholinoethyl)benzamide] are 74 nM and 1.65 h.
On the same counts, the results for `CCN1CCCC1CNC(=O)c1ccc(Sc2ccc(F)cc2)c(F)c1` (stereo not shown) [DS-2-053, N-((1-ethylpyrrolidin-2-yl)methyl)-3-fluoro-4-((4-fluorophenyl)thio)benzamide] are 87 nM and 0.683 h.
